Experimental data: article PMC11193019, “Transient kinetics reveal the mechanism of competitive inhibition of the neutral amino acid transporter ASCT2” (The Journal of Biological Chemistry, 2024)
Numbering of substitutions follows the chain as printed.

How the values were obtained:
Type in all cases: cell-based
ASCT2 (rASCT2) [1] = biological target: T1, ASCT2 (rASCT2) (Rattus norvegicus, UniProt D3ZJ25); assay: whole-cell patch clamp (leak anion current block dose response; rapid solution exchange and displacement by serine)
T1 construct: gene Slc1a5; rASCT2 cDNA in pBK-CMV, expressed in HEK293T cells
T1 sequence (D3ZJ25 1-555): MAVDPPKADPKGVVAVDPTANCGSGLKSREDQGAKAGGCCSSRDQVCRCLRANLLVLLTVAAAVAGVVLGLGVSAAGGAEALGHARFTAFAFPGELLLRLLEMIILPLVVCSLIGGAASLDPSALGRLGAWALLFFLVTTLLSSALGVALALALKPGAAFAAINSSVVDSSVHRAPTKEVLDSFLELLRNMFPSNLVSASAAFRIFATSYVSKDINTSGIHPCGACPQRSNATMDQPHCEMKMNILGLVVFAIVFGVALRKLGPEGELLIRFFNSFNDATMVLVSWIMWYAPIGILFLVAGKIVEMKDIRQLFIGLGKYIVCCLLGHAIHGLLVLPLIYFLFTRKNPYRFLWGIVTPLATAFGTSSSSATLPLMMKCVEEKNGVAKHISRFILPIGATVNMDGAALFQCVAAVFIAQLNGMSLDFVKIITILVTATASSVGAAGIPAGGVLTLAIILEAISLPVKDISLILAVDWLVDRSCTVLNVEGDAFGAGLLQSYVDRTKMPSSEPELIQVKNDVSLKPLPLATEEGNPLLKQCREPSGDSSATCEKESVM

ASCT2 (rASCT2) [2] = biological target: T2, ASCT2 (rASCT2) (Rattus norvegicus, UniProt D3ZJ25, D489N); assay: whole-cell patch clamp, anion current dose response at […] Na+
T2 construct: gene Slc1a5; rASCT2 mutant expressed in HEK293T cells
T2 sequence (D3ZJ25 1-555 D489N): T1 sequence (D3ZJ25 1-555) with D489N

ASCT2 (rASCT2) [3] = biological target: T3, ASCT2 (rASCT2) (Rattus norvegicus, UniProt D3ZJ25, D402N); assay: as above
T3 construct: gene Slc1a5; rASCT2 mutant expressed in HEK293T cells
T3 sequence (D3ZJ25 1-555 D402N): T1 sequence (D3ZJ25 1-555) with D402N

O=C(O[C@@H]1CN[C@H](C(=O)O)C1)c1ccc(-c2ccccc2)cc1 [Lc-BPE, L-cis hydroxyproline biphenyl ester]
IC50 (ASCT2 (rASCT2) [1]): 830 ± 200 nM
IC50 (ASCT2 (rASCT2) [2]): 4400 ± 800 nM
IC50 (ASCT2 (rASCT2) [3]): 1600 ± 100 nM
